# Tests used:
# DYRK2A = target: T1, DYRK2A (Homo sapiens, UniProt Q92630); assay: DSF Tm panel; format: binding; conditions: 10 μM compound
# T1 construct: purchased in-house DSF kinase panel (SGC-style construct names; the trailing letter is the construct ID)
# T1 sequence (Q92630 1-601): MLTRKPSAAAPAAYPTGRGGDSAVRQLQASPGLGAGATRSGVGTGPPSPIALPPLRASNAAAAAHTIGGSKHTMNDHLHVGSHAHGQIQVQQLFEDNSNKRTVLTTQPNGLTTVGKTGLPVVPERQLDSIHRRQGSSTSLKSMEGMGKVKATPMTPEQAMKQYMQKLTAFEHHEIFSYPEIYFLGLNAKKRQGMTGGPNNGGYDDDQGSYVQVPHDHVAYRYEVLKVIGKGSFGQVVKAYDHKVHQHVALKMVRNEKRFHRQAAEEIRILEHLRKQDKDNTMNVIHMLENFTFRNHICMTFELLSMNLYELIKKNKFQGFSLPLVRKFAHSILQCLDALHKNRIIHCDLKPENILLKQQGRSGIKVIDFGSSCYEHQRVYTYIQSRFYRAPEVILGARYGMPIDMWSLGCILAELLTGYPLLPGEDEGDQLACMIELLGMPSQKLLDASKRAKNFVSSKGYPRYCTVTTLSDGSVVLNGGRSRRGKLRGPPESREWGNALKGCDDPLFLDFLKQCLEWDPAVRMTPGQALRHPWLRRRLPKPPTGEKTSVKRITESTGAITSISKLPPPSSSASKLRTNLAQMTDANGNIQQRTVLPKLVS
# MST4A = target: T2, MST4A (Homo sapiens, UniProt Q9P289); assay: DSF Tm panel; format: binding; conditions: 10 μM compound
# T2 construct: purchased in-house DSF kinase panel (SGC-style construct names; the trailing letter is the construct ID)
# T2 sequence (Q9P289 1-300): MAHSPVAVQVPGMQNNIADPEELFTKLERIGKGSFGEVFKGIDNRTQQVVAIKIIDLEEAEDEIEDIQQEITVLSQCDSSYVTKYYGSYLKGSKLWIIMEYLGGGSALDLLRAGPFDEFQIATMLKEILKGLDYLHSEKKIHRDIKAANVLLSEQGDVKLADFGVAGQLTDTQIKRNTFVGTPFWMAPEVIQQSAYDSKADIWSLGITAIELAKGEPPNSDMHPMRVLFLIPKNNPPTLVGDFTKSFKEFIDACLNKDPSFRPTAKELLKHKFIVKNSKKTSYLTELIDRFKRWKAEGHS
# ABL1 (ABL1A) = target: T3, ABL1 (ABL1A) (Homo sapiens, UniProt P00519); assay: DSF Tm panel; format: binding; conditions: 10 μM compound
# T3 construct: purchased in-house DSF kinase panel (SGC-style construct names; the trailing letter is the construct ID)
# T3 sequence (P00519 229-512): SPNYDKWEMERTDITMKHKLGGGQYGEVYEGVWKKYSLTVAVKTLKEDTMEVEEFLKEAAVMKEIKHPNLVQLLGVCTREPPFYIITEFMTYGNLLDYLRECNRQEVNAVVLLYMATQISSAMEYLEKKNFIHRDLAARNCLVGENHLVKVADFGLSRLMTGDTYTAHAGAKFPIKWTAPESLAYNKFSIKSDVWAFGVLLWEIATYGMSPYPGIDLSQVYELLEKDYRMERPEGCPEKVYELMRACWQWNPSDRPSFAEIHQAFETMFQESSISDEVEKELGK
# CSNK1DA = target: T4, CSNK1DA (Homo sapiens, UniProt P48730); assay: DSF Tm panel; format: binding; conditions: 10 μM compound
# T4 construct: purchased in-house DSF kinase panel (SGC-style construct names; the trailing letter is the construct ID)
# T4 sequence (P48730 1-294): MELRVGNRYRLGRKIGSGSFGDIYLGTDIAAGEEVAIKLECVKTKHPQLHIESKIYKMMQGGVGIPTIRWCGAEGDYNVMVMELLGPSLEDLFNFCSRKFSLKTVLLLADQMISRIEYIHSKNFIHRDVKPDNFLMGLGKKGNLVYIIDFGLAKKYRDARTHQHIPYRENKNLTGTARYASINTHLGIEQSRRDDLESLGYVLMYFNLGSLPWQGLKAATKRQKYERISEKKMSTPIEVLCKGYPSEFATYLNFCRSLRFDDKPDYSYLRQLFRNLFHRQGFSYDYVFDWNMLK
# PKMYT1A = target: T5, PKMYT1A (Homo sapiens, UniProt Q99640); assay: DSF Tm panel; format: binding; conditions: 10 μM compound
# T5 construct: purchased in-house DSF kinase panel (SGC-style construct names; the trailing letter is the construct ID)
# T5 sequence (Q99640 75-362): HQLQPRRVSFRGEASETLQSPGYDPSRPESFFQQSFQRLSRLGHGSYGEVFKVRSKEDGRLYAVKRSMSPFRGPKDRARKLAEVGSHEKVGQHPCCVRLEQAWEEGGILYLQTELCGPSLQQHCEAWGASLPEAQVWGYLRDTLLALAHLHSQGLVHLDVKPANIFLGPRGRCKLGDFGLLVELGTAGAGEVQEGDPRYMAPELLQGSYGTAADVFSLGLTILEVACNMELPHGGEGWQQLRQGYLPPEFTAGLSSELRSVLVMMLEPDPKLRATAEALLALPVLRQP
# OSR1A = target: T6, OSR1A (Homo sapiens, UniProt O95747); assay: DSF Tm panel; format: binding; conditions: 10 μM compound
# T6 construct: purchased in-house DSF kinase panel (SGC-style construct names; the trailing letter is the construct ID)
# T6 sequence (O95747 17-291): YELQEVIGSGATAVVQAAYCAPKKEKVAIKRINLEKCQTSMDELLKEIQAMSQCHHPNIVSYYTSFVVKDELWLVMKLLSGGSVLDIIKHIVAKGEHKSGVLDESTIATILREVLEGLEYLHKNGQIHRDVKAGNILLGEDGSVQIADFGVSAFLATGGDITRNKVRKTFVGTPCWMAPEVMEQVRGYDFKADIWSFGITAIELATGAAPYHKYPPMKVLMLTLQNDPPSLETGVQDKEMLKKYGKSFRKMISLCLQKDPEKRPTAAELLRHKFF
# MAPK13A = target: T7, MAPK13A (Homo sapiens, UniProt O15264); assay: DSF Tm panel; format: binding; conditions: 10 μM compound
# T7 construct: purchased in-house DSF kinase panel (SGC-style construct names; the trailing letter is the construct ID)
# T7 sequence (O15264 1-365): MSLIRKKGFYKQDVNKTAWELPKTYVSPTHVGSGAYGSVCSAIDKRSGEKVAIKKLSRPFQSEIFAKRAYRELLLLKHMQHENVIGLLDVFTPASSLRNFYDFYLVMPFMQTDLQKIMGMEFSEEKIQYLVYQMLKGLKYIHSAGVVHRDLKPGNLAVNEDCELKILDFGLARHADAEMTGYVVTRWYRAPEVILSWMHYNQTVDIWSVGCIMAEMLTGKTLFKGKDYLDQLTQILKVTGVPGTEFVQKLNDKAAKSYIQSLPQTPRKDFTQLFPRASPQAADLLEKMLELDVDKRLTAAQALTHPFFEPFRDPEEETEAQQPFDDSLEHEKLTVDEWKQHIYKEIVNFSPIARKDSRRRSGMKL
# AKT3A = target: T8, AKT3A (Homo sapiens, UniProt Q9Y243); assay: DSF Tm panel; format: binding; conditions: 10 μM compound
# T8 construct: purchased in-house DSF kinase panel (SGC-style construct names; the trailing letter is the construct ID)
# T8 sequence (Q9Y243 148-479): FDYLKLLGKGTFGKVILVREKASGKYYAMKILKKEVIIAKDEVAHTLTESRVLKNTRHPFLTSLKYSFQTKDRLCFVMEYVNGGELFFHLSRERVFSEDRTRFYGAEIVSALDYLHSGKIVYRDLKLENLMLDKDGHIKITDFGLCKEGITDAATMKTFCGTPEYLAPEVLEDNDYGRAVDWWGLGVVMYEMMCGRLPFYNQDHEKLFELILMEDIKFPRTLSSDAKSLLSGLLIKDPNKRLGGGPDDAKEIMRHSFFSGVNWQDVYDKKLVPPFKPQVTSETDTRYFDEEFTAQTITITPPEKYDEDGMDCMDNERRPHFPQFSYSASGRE
# VRK1A = target: T9, VRK1A (Homo sapiens, UniProt Q99986); assay: DSF Tm panel; format: binding; conditions: 10 μM compound
# T9 construct: purchased in-house DSF kinase panel (SGC-style construct names; the trailing letter is the construct ID)
# T9 sequence (Q99986 1-396): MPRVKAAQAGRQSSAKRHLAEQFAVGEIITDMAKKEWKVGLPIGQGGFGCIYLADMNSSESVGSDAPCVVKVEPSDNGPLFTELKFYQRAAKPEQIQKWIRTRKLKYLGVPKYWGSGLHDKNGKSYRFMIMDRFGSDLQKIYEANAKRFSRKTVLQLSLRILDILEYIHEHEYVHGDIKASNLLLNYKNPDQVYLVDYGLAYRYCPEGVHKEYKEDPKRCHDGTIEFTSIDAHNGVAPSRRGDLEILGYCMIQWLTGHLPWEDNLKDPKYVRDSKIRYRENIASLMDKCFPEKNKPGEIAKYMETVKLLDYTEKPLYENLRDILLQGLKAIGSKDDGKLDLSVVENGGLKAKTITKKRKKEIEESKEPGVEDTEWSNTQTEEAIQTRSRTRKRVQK
# SLK = SLK (Homo sapiens, UniProt Q9H2G2); assay: NanoBRET target engagement assay; format: cell-based; parameters: has a greater impact on the full-length protein than on the kinase domains; host or cells: HEK293T (ATCC CRL-3216); conditions: HEK293T cells
# SLK, sequence (Q9H2G2 whole entry, the tested form may be a part): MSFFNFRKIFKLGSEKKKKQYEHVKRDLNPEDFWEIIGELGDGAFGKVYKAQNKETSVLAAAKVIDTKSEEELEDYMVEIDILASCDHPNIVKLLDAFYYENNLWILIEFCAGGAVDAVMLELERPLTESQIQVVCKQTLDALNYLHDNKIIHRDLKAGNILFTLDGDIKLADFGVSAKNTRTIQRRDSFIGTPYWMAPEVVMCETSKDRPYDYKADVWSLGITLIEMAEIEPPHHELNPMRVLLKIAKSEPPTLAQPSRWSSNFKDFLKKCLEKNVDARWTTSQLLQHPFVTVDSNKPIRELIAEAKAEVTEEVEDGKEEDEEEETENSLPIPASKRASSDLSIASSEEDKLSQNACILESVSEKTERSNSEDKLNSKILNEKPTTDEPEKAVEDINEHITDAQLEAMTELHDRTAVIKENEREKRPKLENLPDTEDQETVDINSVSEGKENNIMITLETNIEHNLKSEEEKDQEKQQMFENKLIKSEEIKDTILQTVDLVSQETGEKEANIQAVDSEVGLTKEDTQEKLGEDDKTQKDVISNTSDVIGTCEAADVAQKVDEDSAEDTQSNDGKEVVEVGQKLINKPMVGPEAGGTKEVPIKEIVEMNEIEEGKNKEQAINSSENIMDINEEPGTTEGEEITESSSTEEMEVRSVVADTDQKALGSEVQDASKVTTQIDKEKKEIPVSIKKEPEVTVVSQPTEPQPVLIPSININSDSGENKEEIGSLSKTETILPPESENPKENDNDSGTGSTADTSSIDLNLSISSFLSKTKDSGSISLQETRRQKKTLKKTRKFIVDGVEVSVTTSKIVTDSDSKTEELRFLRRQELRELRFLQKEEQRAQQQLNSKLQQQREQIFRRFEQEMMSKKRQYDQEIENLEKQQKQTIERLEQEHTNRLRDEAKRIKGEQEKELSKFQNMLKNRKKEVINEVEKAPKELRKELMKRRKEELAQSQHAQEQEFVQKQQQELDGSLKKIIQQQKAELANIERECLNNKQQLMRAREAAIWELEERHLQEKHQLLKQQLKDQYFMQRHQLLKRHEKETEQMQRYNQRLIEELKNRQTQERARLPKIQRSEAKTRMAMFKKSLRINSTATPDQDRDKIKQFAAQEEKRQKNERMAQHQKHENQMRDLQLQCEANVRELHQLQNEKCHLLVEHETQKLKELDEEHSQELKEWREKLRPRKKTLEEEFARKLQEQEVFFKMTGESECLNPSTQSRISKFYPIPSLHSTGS
ΔTm at 10 µM (DYRK2A) [°C],ΔTm at 10 µM (MST4A) [°C],ΔTm at 10 µM (ABL1 (ABL1A)) [°C],ΔTm at 10 µM (CSNK1DA) [°C],ΔTm at 10 µM (PKMYT1A) [°C],ΔTm at 10 µM (OSR1A) [°C],ΔTm at 10 µM (MAPK13A) [°C],ΔTm at 10 µM (AKT3A) [°C],ΔTm at 10 µM (VRK1A) [°C],EC50 (SLK) [µM],SMILES
1.1,0.7,1.7,0.6,1,0.7,0.5,-0.3,0.1,> 50,O=C(NCc1ccccc1Cl)Nc1ccc2cc1OCCOCCNc1ccn3ncc-2c3n1 [compound 17]
0.6,0.5,2.2,0.4,1.6,1.8,0.4,0.4,0.4,> 50,O=C(NCc1ccc(Cl)cc1Cl)Nc1ccc2cc1OCCOCCNc1ccn3ncc-2c3n1 [compound 20]
0.7,1.1,2.3,0,1.9,1.6,0.6,-0.3,0.9,> 50,O=C(NCc1ccc(Cl)cc1F)Nc1ccc2cc1OCCOCCNc1ccn3ncc-2c3n1 [compound 21]
0.8,2.1,1.7,1.2,2.1,0.8,0.3,0.9,0.8,> 50,Cc1cc(Cl)ccc1CNC(=O)Nc1ccc2cc1OCCOCCNc1ccn3ncc-2c3n1 [compound 23]
0.5,1.2,-0.4,0.2,0.5,1.6,-0.4,0.3,1,> 50,Cc1cc(Br)ccc1CNC(=O)Nc1ccc2cc1OCCOCCNc1ccn3ncc-2c3n1 [compound 24]
1.8,-0.4,1.4,0.5,0.8,0,0.4,0,-0.1,> 50,CN1CCN(C(=O)Nc2ccc3cc2OCCOCCNc2ccn4ncc-3c4n2)CC1 [compound 35]
0.2,1.1,1.8,0.4,1.4,0.7,0.6,-0.4,0.1,> 50,O=C(NCc1ccc(Cl)cc1)Nc1ccc2cc1OCCOCCNc1ccn3ncc-2c3n1 [compound 19]
0.8,1.9,2.4,-0.5,0.7,2.1,-0.5,-0.1,0.4,> 50,O=C(NCc1ccccc1C(F)(F)F)Nc1ccc2cc1OCCOCCNc1ccn3ncc-2c3n1 [compound 27]
3.9,1.2,1.5,0.1,0.2,1.5,-0.3,0.9,0.3,> 50,COc1cc(CNC(=O)Nc2ccc3cc2OCCOCCNc2ccn4ncc-3c4n2)ccc1F [compound 33]
1.8,1.2,1.7,-0.2,0.4,1.7,-0.3,0.8,0.2,> 50,COc1ccc(CNC(=O)Nc2ccc3cc2OCCOCCNc2ccn4ncc-3c4n2)cc1F [compound 32]
2.8,0.8,1.8,0.4,1.5,1.7,0.7,-0.4,0.3,> 50,O=C(NCc1cccc(Cl)c1)Nc1ccc2cc1OCCOCCNc1ccn3ncc-2c3n1 [compound 18]
2.3,0.8,0.6,-0.1,0.3,1.2,-0.2,1.8,0.5,> 50,Cc1ccc(F)cc1CNC(=O)Nc1ccc2cc1OCCOCCNc1ccn3ncc-2c3n1 [compound 26]
1.5,0.2,0.7,0.2,-0.1,0.9,0.02,0.3,0,> 50,COc1ccccc1CNC(=O)Nc1ccc2cc1OCCOCCNc1ccn3ncc-2c3n1 [compound 29]
1.9,0.9,1.7,0.1,0.3,1.3,-1.3,1.6,0.2,–,COc1ccc(CNC(=O)Nc2ccc3cc2OCCOCCNc2ccn4ncc-3c4n2)cc1 [compound 31]
1.2,2.1,0.9,-0.5,1.1,2.2,-0.5,0.4,0.6,> 50,O=C(NCc1ccc(C(F)(F)F)cc1)Nc1ccc2cc1OCCOCCNc1ccn3ncc-2c3n1 [compound 28]

# — PMC12621043, “Un-LOK-ing a New Approach for Conformational Selective Targeting of STK10 (LOK)” (ACS Medicinal Chemistry Letters, 2025)
